Structures can show the parent of a compound that is named as a salt.
Assay: Evaluation of compatibility between tegoprazan and clopidogrel sulfate (2 weeks, HDPE bottle)
Format: physicochemical
Details: for content, component in mixture: mixture of tegoprazan and clopidogrel sulfate
Experimental: Example 1. Evaluation of Compatibility Between Tegoprazan and Clopidogrel Sulfate
According to Table 1 above, in order to examine the effect of each of tegoprazan and clopidogrel hydrogen sulfate, compatibility therebetween was evaluated under storage conditions according to the ICH guideline recommendations and drug safety test regulations.
It was shown that, when the two components came into direct contact with each other under each storage condition, the contents of the two components decreased.

[1] = 2 weeks, Accelerated conditions (40° C./RH 75 ± 5%)
[2] = 2 weeks, Stressed conditions (60° C./RH 75 ± 5%)

| Compound | content, component alone [1] [%] | content, component alone [2] [%] | content, component alone (Initial (room temperature)) [%] | content, component in mixture [1] [%] | content, component in mixture [2] [%] | content, component in mixture (Initial (room temperature)) [%] |
| --- | --- | --- | --- | --- | --- | --- |
| COC(=O)[C@H](c1ccccc1Cl)N1CCc2sccc2C1 [Clopidogrel sulfate, methyl (+)-(S)-α-(2-chlorophenyl)-6,7-dihydrothieno[3,2-c]pyridine-5(4H)-acetate] | 101.1 | 98.3 | 100.2 | 78.9 | 49.0 | 100.3 |
| Cc1nc2cc(C(=O)N(C)C)cc(O[C@H]3CCOc4cc(F)cc(F)c43)c2[nH]1 [Tegoprazan, (S)-4-((5,7-difluorochroman-4-yl)oxy)-N,N,2-trimethyl-1H-benzo[d]imidazole-6-carboxamide] | 100.3 | 99.1 | 99.8 | 92.0 | 10.5 | 99.7 |
